Assay results: PMC6253839, “Screening of Agelasine D and Analogs for Inhibitory Activity against Pathogenic Protozoa; Identification of Hits for Visceral Leishmaniasis and Chagas Disease” (Molecules, 2009)
≈ marks a conversion by molar mass, not a printed value. Entries after “also recorded” stand apart in the source; their conditions may differ. Where two headings read alike, the source gives them in different places.

Experiments:
[1] = test system: Leishmania infantum amastigotes (MHOM/ET 67); experiment: Antileishmanial activity, amastigotes in primary peritoneal mouse macrophages; format: cell-based; settings: for IC50: Leishmania infantum, Macrophage, 120 h, read-out: L. infantum IC50
Method: Leishmania infantum amastigotes (MHOM/ET 67) were collected from an infected donor hamster and used to infect primary peritoneal mouse macrophages. To determine in vitro antileishmanial activity, 3×10^4 macrophages were seeded in each well of a 96-well plate. After 48 h outgrowth, 5×10^4 amastigotes/well were added and incubated for 2 h at 37 °C. […] Parasite burdens were determined microscopically after Giemsa staining and expressed as a percentage of the blank controls without compound.

[2] = test system: P. falciparum GHA-strain (chloroquine-suceptible); experiment: Antiplasmodial activity, Malstat method; format: cell-based, Plasmodium falciparum; settings: for IC50: Plasmodium falciparum, read-out: P. falciparum IC50
[3] = test system: T. cruzi Tulahuen CL2 strain (nifurtimox-sensitive); experiment: Antitrypanosomal activity, T. cruzi on MRC-5 cells, β-galactosidase readout; format: cell-based, Trypanosoma cruzi; settings: for IC50: Trypanosoma cruzi, TULAHUEN
Method: To determine in vitro anti-trypanosomal activity, 4×10^3 MRC-5 cells and 4×10^4 parasites were added to each well of test plate with compound. […] The color reaction was read at 540 nm and absorbance values were expressed as a percentage of the blank controls.

[4] = Cytotoxicity assay, resazurin; format: cell-based; settings: human
Method: Cell viability was determined after addition of resazurin.

Staphyllococcus aureus = test system: Staphyllococcus aureus; design: method as in PMID 17442577; settings: previous studies; cited from earlier work
Escherichia coli = test system: Escherichia coli; design: method as in PMID 17442577; settings: previous studies; cited from earlier work
[5] = test system: Mycobacterium tuberculosis; settings: cited from earlier work
[6] = intracellular amastigotes, TDR hit criterion <0.5 μg/mL
[7] = GHA-strain, 72 h, TDR hit criterion <0.2 μg/mL
[8] = MRC5, 168 h, read-out: T. cruzi IC50
[9] = MRC-5 SV2 cells (human fetal lung fibroblasts)

Structure (SMILES)	IC50 [1, 6]	IC50 [2, 7]	IC50 [3, 8]	IC50 at 72 h [4, 9]	further results
CC1=C(CC/C(C)=C/CC/C(C)=C/C[n+]2cn(C)c3nc[n-]/c(=N\OC(C)(C)C)c32)C(C)(C)CCC1 [Compound 1m]	0.99 µg/mL (≈ 2.01 µM)	0.69 µg/mL	< 0.12 µg/mL	0.48 µg/mL (≈ 0.972 µM)	–
CO/N=c1\[n-]cnc2c1[n+](C/C=C(\C)CC/C=C(\C)CC/C=C(\C)CCC=C(C)C)cn2C(c1ccccc1)c1ccccc1 [Compound 1i]	1.2 µg/mL (≈ 1.99 µM)	3.5 µg/mL	1.3 µg/mL (≈ 2.15 µM)	0.92 µg/mL (≈ 1.52 µM)	–
CC1=C(CC/C(C)=C/CC/C(C)=C/C[n+]2cn(C)c3nc[n-]/c(=N\OCc4ccccc4)c32)C(C)(C)CCC1 [Compound 1l]	12 µg/mL (≈ 22.7 µM)	1.3 µg/mL	0.14 µg/mL (≈ 0.265 µM)	0.53 µg/mL (≈ 1 µM)	–
CC(C)=CCC/C(C)=C\CC/C(C)=C/C[n+]1cn(C)c2nc[n-]/c(=N\OCc3ccccc3)c21 [Compound 1c]	0.99 µg/mL (≈ 2.15 µM)	0.74 µg/mL	< 0.11 µg/mL	0.31 µg/mL (≈ 0.674 µM)	–
CC(C)=CCC/C(C)=C/CC/C(C)=C/CC/C(C)=C/C[n+]1cn(C)c2nc[n-]/c(=N\OC(C)(C)C)c21 [Compound 1f]	0.27 µg/mL (≈ 0.547 µM)	0.26 µg/mL	< 0.12 µg/mL	0.26 µg/mL (≈ 0.527 µM)	activity against L. infantum, in words [1]: potent inhibitors
CC(C)=CCC/C(C)=C/CC/C(C)=C/CC/C(C)=C/Cn1cnc2c1c(=N)ncn2C [Compound 8]	13 µg/mL (≈ 30.8 µM)	3.37 µg/mL	0.19 µg/mL (≈ 0.451 µM)	2.3 µg/mL (≈ 5.45 µM)	–
CC(C)=CCC/C(C)=C/CC/C(C)=C/CC/C(C)=C/C[n+]1cn(C)c2nc[n-]/c(=N\OCc3ccccc3)c21 [Compound 1e]	5.4 µg/mL (≈ 10.2 µM)	4.2 µg/mL	1.4 µg/mL (≈ 2.65 µM)	3.2 µg/mL (≈ 6.06 µM)	–
CC1=C(CC/C(C)=C/CC/C(C)=C/Cn2cnc3c2C(=N)N(C)CN3C)C(C)(C)CCC1 [Compound 9]	> 28 µg/mL	> 28 µg/mL	3.2 µg/mL (≈ 7.31 µM)	> 28 µg/mL	IC50 ([3]; MRC5, read-out: T. cruzi IC50): < 1 µg/mL
CC(C)=CCC/C(C)=C/CC/C(C)=C/CC/C(C)=C/Cn1cnc2ncnc(N)c21 [Compound 4a]	> 26 µg/mL	9.4 µg/mL	2.3 µg/mL (≈ 5.64 µM)	2.6 µg/mL (≈ 6.38 µM)	–
C=C1CC[C@H]2C(C)(C)CCC[C@]2(C)[C@H]1CC/C(C)=C/Cn1c[n+](C)c2nc[n-]/c(=N\OC(C)(C)C)c21 [Compound 1o]	4 µg/mL (≈ 8.1 µM)	0.94 µg/mL	< 0.12 µg/mL	0.45 µg/mL (≈ 0.911 µM)	–
CCCCCCCCCCCCCCCCOP(=O)([O-])OCC[N+](C)(C)C [Miltefosine, reference compound]	0.24 µg/mL (≈ 0.589 µM)	–	–	–	–
CCN(CC)CCCC(C)Nc1ccnc2cc(Cl)ccc12 (centres unmarked) [Chloroquine, reference compound]	–	–	–	–	IC50 ([2]; 72 h): 0.04 µg/mL
CC(C)=CCC/C(C)=C/CC/C(C)=C/CC/C(C)=C/C[n+]1cn(CCC#N)c2nc[n-]/c(=N\OCc3ccccc3)c21 [Compound 1h]	18 µg/mL (≈ 31.8 µM)	10 µg/mL	3 µg/mL (≈ 5.29 µM)	3.5 µg/mL (≈ 6.18 µM)	–
C/C(=C\C[n+]1cn(C)c2ncnc(N)c21)CCCC(C)CCCC(C)CCCC(C)C (centres unmarked) [Compound 2b]	–	–	< 0.12 µg/mL	–	IC50 [1]: 2.9 µg/mL; IC50 ([2]; 72 h): 0.96 µg/mL; IC50 at 72 h ([4]; read-out: MRC-5 IC50): 0.75 µg/mL
C=C1CC[C@@H]2C(C)(C)CCC[C@@]2(C)[C@@H]1CC/C(C)=C/Cn1c[n+](C)c2ncnc(N)c21 [Compound 2c, agelasine D]	1.5 µg/mL	0.29 µg/mL	4.5 µg/mL	–	IC50 ([2]; same value as 0.29 μg/mL, in μM): 0.63 µM; IC50 at 72 h ([4]; read-out: MRC-5 IC50): 6.7 µg/mL
C=C1CC[C@H]2C(C)(C)CCC[C@]2(C)[C@H]1CC/C(C)=C/Cn1c[n+](C)c2nc[n-]/c(=N\OC)c21 [Compound 1n]	0.63 µg/mL (≈ 1.39 µM)	0.29 µg/mL	0.49 µg/mL (≈ 1.08 µM)	4.5 µg/mL (≈ 9.96 µM)	–
CONc1ncnc2ncn(C/C=C(\C)CC/C=C(\C)CC/C=C(\C)CCC=C(C)C)c12 [Compound 4b]	> 28 µg/mL	> 28 µg/mL	0.28 µg/mL (≈ 0.64 µM)	2.1 µg/mL (≈ 4.8 µM)	–
CC(C)=CCC/C(C)=C\CC/C(C)=C/C[n+]1cn(C)c2ncnc(N)c21 [Compound 2a]	> 26 µg/mL	2.9 µg/mL	0.43 µg/mL	> 26 µg/mL	hit for Chagas disease according to TDR [3]: classified as hits; also recorded: identified as hits; antibacterial activity against S. aureus, in words (Staphyllococcus aureus): virtually inactive; antibacterial activity against E. coli, in words (Escherichia coli): virtually inactive; antibacterial activity against M. tuberculosis, in words ([5]; previous studies): virtually inactive
CC(C)=CCC/C(C)=C/CC/C(C)=C/CC/C(C)=C/Cn1c[n+](C)c2ccccc21 [Compound 6]	2.5 µg/mL	1 µg/mL	< 0.12 µg/mL	2 µg/mL	–
CO/N=c1\[n-]cnc2c1[n+](C/C=C(\C)CCCC(C)CCCC(C)CCCC(C)C)cn2C (centres unmarked) [Compound 1j]	0.23 µg/mL (≈ 0.503 µM)	0.3 µg/mL	< 0.11 µg/mL	0.21 µg/mL (≈ 0.459 µM)	activity against L. infantum, in words [1]: potent inhibitors
CO/N=c1\[n-]cnc2c1[n+](C/C=C(\C)CC/C=C(\C)CC/C=C(\C)CCC=C(C)C)cn2C [Compound 1d]	0.093 µg/mL (≈ 0.206 µM)	0.1 µg/mL	0.11 µg/mL (≈ 0.244 µM)	2 µg/mL (≈ 4.43 µM)	hit for leishmaniasis according to TDR ([1]; criterion IC50 <0.5 μg/mL and SI >20): meets the definition of a hit; also recorded: identified as hits; antimalaria hit according to TDR ([2]; criterion IC50 <0.2 μg/mL with SI >20): met this requirement; IC50 ([3]; MRC5, read-out: T. cruzi IC50): < 1 µg/mL; antibacterial activity against M. tuberculosis, in words ([5]; previously shown): inhibition of Mycobacterium tuberculosis
CC(C)=CCC/C(C)=C/CC/C(C)=C/CC/C(C)=C/Cn1cnc2ncnc(NOCc3ccccc3)c21 [Compound 4c]	> 33 µg/mL	25 µg/mL	1.5 µg/mL (≈ 2.92 µM)	1.5 µg/mL (≈ 2.92 µM)	–
CC(C)=CCC/C(C)=C/CC/C(C)=C/CC/C(C)=C/Cn1cnc2c(N)ncnc21 [Compound 3f, 9-Geranylgeranyladenine]	> 29 µg/mL	> 29 µg/mL	0.77 µg/mL (≈ 1.89 µM)	2.7 µg/mL (≈ 6.62 µM)	IC50 ([3]; MRC5, read-out: T. cruzi IC50): < 1 µg/mL
CO/N=c1\[n-]cnc2c1[n+](C/C=C(\C)CC/C=C(\C)CC/C=C(\C)CCC=C(C)C)cn2CCC#N [Compound 1g]	12 µg/mL (≈ 24.5 µM)	5.3 µg/mL	0.81 µg/mL (≈ 1.65 µM)	0.49 µg/mL (≈ 0.999 µM)	–
CC(C)=CCC/C(C)=C/CC/C(C)=C/CC/C(C)=C/C[n+]1cnc2c(ncn2C)c1N [Compound 7]	> 32 µg/mL	10 µg/mL	11 µg/mL	16 µg/mL	–
O=C(Cn1ccnc1[N+](=O)[O-])NCc1ccccc1 [Benznidazole, reference compound]	–	–	–	–	IC50 ([3]; MRC5, as printed in running text and table footnote, read-out: T. cruzi IC50): 0.25 µg/mL (≈ 0.961 µM)
CO/N=c1\[n-]cnc2c1[n+](C/C=C(\C)CC/C=C(\C)CCC=C(C)C)cn2C [Compound 1b]	0.77 µg/mL (≈ 2.01 µM)	0.63 µg/mL	< 0.096 µg/mL	0.35 µg/mL (≈ 0.913 µM)	–
CO/N=c1\[n-]cnc2c1n(C/C=C(\C)CCC=C(C)C)c[n+]2C [Compound 1a]	7.5 µg/mL (≈ 23.8 µM)	0.46 µg/mL	< 0.079 µg/mL	0.86 µg/mL (≈ 2.73 µM)	–
